Key:
[1] = tested on: MDA-MB-231; test: Antiproliferative activity against human MDA-MB-231 cells by MTT assay; format: functional, cell-based
[2] = tested on: K562; test: Antiproliferative activity against human K562 cells by MTT assay; format: functional, cell-based
[3] = tested on: COLO 205; test: Antiproliferative activity against human COLO205 cells by MTT assay; format: functional, cell-based
[4] = molecular target: T1, NAD-dependent protein deacetylase sirtuin-1 (Homo sapiens) (UniProt Q96EB6); test: Inhibition of Sirt1 expressed in human U2OS cells assessed as acetylation of p53 at 10 uM; format: cell-based
T1 sequence (whole entry): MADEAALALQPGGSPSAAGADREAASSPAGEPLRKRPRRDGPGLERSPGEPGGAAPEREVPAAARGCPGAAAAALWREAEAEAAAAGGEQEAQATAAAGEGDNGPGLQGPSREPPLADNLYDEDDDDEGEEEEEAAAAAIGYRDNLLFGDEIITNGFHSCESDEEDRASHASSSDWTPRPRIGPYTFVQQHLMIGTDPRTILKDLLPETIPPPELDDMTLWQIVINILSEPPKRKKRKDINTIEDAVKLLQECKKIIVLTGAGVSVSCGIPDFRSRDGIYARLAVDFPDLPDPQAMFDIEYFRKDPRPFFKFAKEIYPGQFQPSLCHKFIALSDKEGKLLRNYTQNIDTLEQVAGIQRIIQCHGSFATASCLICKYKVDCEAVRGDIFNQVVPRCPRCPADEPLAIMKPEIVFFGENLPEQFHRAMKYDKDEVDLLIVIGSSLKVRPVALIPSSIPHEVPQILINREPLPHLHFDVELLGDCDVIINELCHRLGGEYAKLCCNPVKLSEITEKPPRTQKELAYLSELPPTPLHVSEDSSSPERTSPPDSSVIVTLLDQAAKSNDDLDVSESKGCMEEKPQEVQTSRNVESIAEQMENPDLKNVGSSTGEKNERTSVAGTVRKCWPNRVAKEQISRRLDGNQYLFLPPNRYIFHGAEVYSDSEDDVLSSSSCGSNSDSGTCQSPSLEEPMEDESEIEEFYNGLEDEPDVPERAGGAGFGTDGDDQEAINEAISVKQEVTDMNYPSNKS

| IC50 ([1]; Homo sapiens, MDA-MB-231) [µM] | IC50 ([2]; Homo sapiens, K562) [µM] | IC50 ([3]; Homo sapiens, COLO 205) [µM] | inhibition [4] [%] | IC50 ([1]; mda-mb-231) [µM] | IC50 ([2]; k562) [µM] | IC50 ([3]; colo 205) [µM] | Compound |
| --- | --- | --- | --- | --- | --- | --- | --- |
| 48 | 19 | 14 | – | – | – | – | CCCc1nn(C)c2c(=O)[nH]c(-c3ccc(C)cc3)nc12 |
| 44 | 21 | 10 | 61 | – | – | – | CCCc1nn(C)c2c(=O)[nH]c(-c3cccc([N+](=O)[O-])c3O)nc12 |
| 25 | 15 | 7 | 63 | – | – | – | CCCc1nn(C)c2c(=O)[nH]c(-c3ccc(O)c(OC(F)F)c3)nc12 |
| 46 | 17 | 25 | – | – | – | – | CCCc1nn(C)c2c(=O)[nH]c(-c3ccc(Br)cc3)nc12 |
| – | – | – | 79 | – | – | – | Cc1ccc(C(=O)Nc2ccc(S(=O)(=O)O)c3cc(S(=O)(=O)O)cc(S(=O)(=O)O)c23)cc1NC(=O)c1cccc(NC(=O)Nc2cccc(C(=O)Nc3cc(C(=O)Nc4ccc(S(=O)(=O)O)c5cc(S(=O)(=O)O)cc(S(=O)(=O)O)c45)ccc3C)c2)c1 |
| 44 | 21 | 9 | – | – | – | – | CCCc1nn(C)c2c(=O)[nH]c(-c3ccc(OC)cc3)nc12 |
| 20 | 17 | 10 | 48 | – | – | – | Oc1nc(-c2ccc(F)cc2)nc2ccccc12 |
| 28 | 24 | 8 | – | – | – | – | COc1ccc(-c2nc(O)c3ccccc3n2)cc1 |
| 41 | 21 | 11 | – | – | – | – | O=c1[nH]c(-c2ccc(Br)cc2)nc2ccccc12 |
| 40 | 16 | 11 | – | – | – | – | CCCc1nn(C)c2c(=O)[nH]c(-c3cccc(Cl)c3)nc12 |
| 37 | 20 | 23 | – | 42 | 19 | 12 | O=c1[nH]c(-c2ccc([N+](=O)[O-])cc2)nc2ccccc12 |
| 51 | 15 | 10 | – | – | – | – | CCCc1nn(C)c2c(=O)[nH]c(-c3ccc(Cl)cc3)nc12 |
| 41 | 18 | 12 | – | – | – | – | O=c1[nH]c(-c2cccc(Cl)c2)nc2ccccc12 |
| 38 | 24 | 12 | 59 | – | – | – | CCCc1nn(C)c2c(=O)[nH]c(-c3cccc(Br)c3)nc12 |

| Compound | IC50 ([1]; Homo sapiens, MDA-MB-231) [µM] | IC50 ([2]; Homo sapiens, K562) [µM] | IC50 ([3]; Homo sapiens, COLO 205) [µM] | inhibition [4] [%] | IC50 ([1]; mda-mb-231) [µM] | IC50 ([2]; k562) [µM] | IC50 ([3]; colo 205) [µM] |
| --- | --- | --- | --- | --- | --- | --- | --- |
| COc1ccc2c(c1)[nH]c1c(C)nccc12 [HARMINE] | 32 | 14 | 8 | – | – | – | – |
